Assay results: patent publication US20050075354A1, “Complexes of E-2-Methoxy-N(3-{4-[3-methyl-4-(6-methyl-pyridin-3-yloxy)-phenylamino]-quinzazolin-6-YL}-allyl)-acetamide, their method of production, and use” (Pfizer Inc, priority 2002, published 2005)

How the values were obtained:
Assay type in all cases: physicochemical
[1] = Hygroscopicity (weight gain at relative humidity); details: for Hygroscopicity (by weight): at 90% relative humidity; for Hygroscopicity (general statement): description, no conditions stated
[2] = Chemical stability (general statement); details: description, no conditions stated
[3] = Hygroscopicity in relative humidity chambers; details: after 16 hours
Experimental: The material was evaluated for hygroscopicity in relative humidity chambers.

Compound | Hygroscopicity (by weight) [1] | Hygroscopicity (general statement) [1] | Chemical stability [2] | other results
CCS(=O)(=O)O.CCS(=O)(=O)O.COCC(=O)NC/C=C/c1ccc2ncnc(Nc3ccc(Oc4ccc(C)nc4)c(C)c3)c2c1 [diesylate complex, E-2-Methoxy-N-(3-{4-[3-methyl-4-(6-methyl-pyridin-3-yloxy)-phenylamino]-quinazolin-6-yl}-allyl)-acetamide diesylate] | 45% | – | – | –
COCC(=O)NC/C=C/c1ccc2ncnc(Nc3ccc(Oc4ccc(C)nc4)c(C)c3)c2c1.O=C(O)/C=C\C(=O)O.O=C(O)/C=C\C(=O)O [dimaleate, E-2-Methoxy-N-(3-{4-[3-methyl-4-(6-methyl-pyridin-3-yloxy)-phenylamino]-quinazolin-6-yl}-allyl)-acetamide Dimaleate] | 0.6% | non-hygroscopic | chemically stable | –
COCC(=O)NC/C=C/c1ccc2ncnc(Nc3ccc(Oc4ccc(C)nc4)c(C)c3)c2c1.O=[N+]([O-])O.O=[N+]([O-])O [dinitrate, E-2-Methoxy-N-(3-{4-[3-methyl-4-(6-methyl-pyridin-3-yloxy)-phenylamino]-quinazolin-6-yl}-allyl)-acetamide dinitrate] | ~7% | – | – | –
COCC(=O)NC/C=C/c1ccc2ncnc(Nc3ccc(Oc4ccc(C)nc4)c(C)c3)c2c1.O=S(=O)(O)c1ccccc1 [monobesylate, E-2-Methoxy-N-(3-{4-[3-methyl-4-(6-methyl-pyridin-3-yloxy)-phenylamino]-quinazolin-6-yl}-allyl)-acetamide monobesylate] | – | – | – | Water sorption ([3]; 75% RH chamber): no significant water sorption; Weight increase ([3]; 94% RH chamber): 6.7%; Deliquescence ([3]; 100% relative humidity chamber): deliquescence was observed
COCC(=O)NC/C=C/c1ccc2ncnc(Nc3ccc(Oc4ccc(C)nc4)c(C)c3)c2c1.Cl [monohydrochloride, E-2-Methoxy-N-(3{4-[3-methyl-4-(6-methyl-pyridin-3-yloxy)-phenylamino]-quinazolin-6-yl}-allyl)-acetamide Monohydrochloride] | – | non-hygroscopic | chemically stable | –
COCC(=O)NC/C=C/c1ccc2ncnc(Nc3ccc(Oc4ccc(C)nc4)c(C)c3)c2c1.O=P(O)(O)O [monophosphate, E-2-Methoxy-N-(3{4-[3-methyl-4-(6-methyl-pyridin-3-yloxy)-phenylamino]-quinazolin-6-yl}-allyl)-acetamide Monophosphate] | – | non-hygroscopic | chemically stable | –
CC1(C)C2CCC1(CS(=O)(=O)O)C(=O)C2.COCC(=O)NC/C=C/c1ccc2ncnc(Nc3ccc(Oc4ccc(C)nc4)c(C)c3)c2c1 [racemic camsylate, racemic E-2-Methoxy-N-(3-{4-[3-methyl-4-(6-methyl-pyridin-3-yloxy)-phenylamino]-quinazolin-6-yl}-allyl)-acetamide camsylate] | – | – | – | Hygroscopicity (in words) ([1]; camsylate samples, conditions not stated): hygroscopic to the point of deliquescence
